Data from patent US10213433B2 (AbbVie Inc., priority 2010, dated 2019).
pKi: −log10 of the molar value.

Columns and labels:
Bcl-2 protein = Bcl-2 protein (Homo sapiens (Human), UniProt P10415); assay: Bcl-2 binding TR-FRET (Time-Resolved Fluorescence-Resonance-Energy-Transfer) assay; details: inhibition constant for binding to Bcl-2 protein
Excerpt: The smaller the Ki value, the greater is the binding affinity.

[1] = log D at pH 7.4 by an HPLC method; type: physicochemical
Excerpt: Table 2 below presents data for log D (a parameter related to lipophilicity) at pH 7.4, as determined by an HPLC method, for representative compounds.

Bcl-2 protein, sequence (P10415 whole entry): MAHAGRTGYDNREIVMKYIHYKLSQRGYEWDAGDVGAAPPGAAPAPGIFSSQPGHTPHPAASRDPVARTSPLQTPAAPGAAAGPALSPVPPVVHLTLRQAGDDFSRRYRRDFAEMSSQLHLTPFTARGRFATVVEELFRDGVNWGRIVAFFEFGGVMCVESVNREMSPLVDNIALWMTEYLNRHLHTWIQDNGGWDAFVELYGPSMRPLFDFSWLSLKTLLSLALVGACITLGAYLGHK

Row | Structure (SMILES) | pKi (Bcl-2 protein) | chromatographic logD [1]
1 | CC1(C)CCC(CN2CCN(c3ccc(C(=O)NS(=O)(=O)c4ccc(OCC5CCOCC5)c([N+](=O)[O-])c4)c(Oc4cnc5[nH]ccc5c4)c3)CC2)=C(c2ccc(Cl)cc2)C1 [Compound 24, 4-(4-{[2-(4-chlorophenyl)-4,4-dimethylcyclohex-1-en-1-yl]methyl}piperazin-1-yl)-N-{[3-nitro-4-(tetrahydro-2H-pyran-4-ylmethoxy)phenyl]sulfonyl}-2-(1H-pyrrolo[2,3-b]pyridin-5-yloxy)benzamide] | > 11.00 | 5.72
2 | CC1(C)CCC(CN2CCN(c3ccc(C(=O)NS(=O)(=O)c4ccc(OCC5COCCO5)c([N+](=O)[O-])c4)c(Oc4cnc5[nH]ccc5c4)c3)CC2)=C(c2ccc(Cl)cc2)C1 (centres unmarked) [Compound 12, 4-(4-{[2-(4-chlorophenyl)-4,4-dimethylcyclohex-1-en-1-yl]methyl}piperazin-1-yl)-N-{[4-(1,4-dioxan-2-ylmethoxy)-3-nitrophenyl]sulfonyl}-2-(1H-pyrrolo[2,3-b]pyridin-5-yloxy)benzamide] | > 11.00 | 5.17
3 | CC1(C)CCC(CN2CCN(c3ccc(C(=O)NS(=O)(=O)c4ccc(OCC5(F)CCOCC5)c([N+](=O)[O-])c4)c(Oc4cnc5[nH]ccc5c4)c3)CC2)=C(c2ccc(Cl)cc2)C1 [Compound 37, 4-(4-{[2-(4-chlorophenyl)-4,4-dimethylcyclohex-1-en-1-yl]methyl}piperazin-1-yl)-N-({4-[(4-fluorotetrahydro-2H-pyran-4-yl)methoxy]-3-nitrophenyl}sulfonyl)-2-(1H-pyrrolo[2,3-b]pyridin-5-yloxy)benzamide] | > 11.00 | 5.27
4 | CC1(C)CCC(CN2CCN(c3ccc(C(=O)NS(=O)(=O)c4ccc(OCC5(F)CCN(C6COC6)CC5)c(Cl)c4)c(Oc4cnc5[nH]ccc5c4)c3)CC2)=C(c2ccc(Cl)cc2)C1 [Compound 322, N-[(3-chloro-4-{[4-fluoro-1-(oxetan-3-yl)piperidin-4-yl]methoxy}phenyl)sulfonyl]-4-(4-{[2-(4-chlorophenyl)-4,4-dimethylcyclohex-1-en-1-yl]methyl}piperazin-1-yl)-2-(1H-pyrrolo[2,3-b]pyridin-5-yloxy)benzamide] | > 11.00 | 5.48
